Read-outs that look alike come from different tables or passages of the source. Where no end group is shown, it is not given here.
Key:
[1] = test system: MDA-MB-435 human breast carcinoma cells; assay type: cell-based; details: for cell killing: agents not removed after 30 min, after 24 hr
Experimental: (§1) (SEQ ID NO: 1) conjugate, or the doxorubicin/[sequence] (SEQ ID NO: 19; control) conjugate (0.1 to 10 µg/well of doxorubicin-equivalent) for either 30 min or overnight. Following incubation, the agents were removed by extensive washing with PBS, then fresh medium added and incubation was continued. The number of surviving cells was determined at 24 hours with crystal violet staining (see Koivunen et al., supra, 1994).

[2] = test system: MDA-MB-435 breast carcinoma; experiment: Tumor therapy with doxorubicin/peptide conjugates in tumor bearing mice; assay type: in vivo, Balb c nu/nu mice; details: for effect on tumor growth: relative to treatment with the vehicle, alone
Experimental: Female 2-month old Balb c nu/nu mice (Harlan Sprague Dawley; San Diego CA) were used for these studies and were cared for according to the Burnham Institute animal facility guidelines. […] Tumors were allowed to grow to a size of about 1 cm^3 (about 5% of the mouse's body weight) before starting the treatment experiments, except for the toxicity experiments as discussed below.
Weekly doxorubicin/peptide conjugate or control treatments (5 µg/mouse/week of doxorubicin-equivalent) were administered intravenously. In some experiments, as indicated, a dose of 30 µg/mouse was administered every 3 weeks. Treatment with doxorubicin, alone, is referred to as "dox control" and treatment with doxorubicin conjugated to the non-tumor homing control peptide, […] As an additional control, in some experiments the tumor homing peptide was mixed with doxorubicin, without linking, and the mixture was administered to tumor bearing mice. Such treatment produced results that were not statistically different from those obtained with the above described dox controls.
Mice were anesthetized with a tribromoethanol-based anesthetic mixture (AVERTIN; Papaioannou and Fox, Lab. Anim. 43:189-192 (1993)) before each treatment. Anesthetization facilitated the tail vein injections (final volume, 200 µl) and allowed precise serial three dimensional tumor size measurements. Tumor volume calculations were based on the equation for the volume of an ovaloid: V=4/3(nabc), where a, b, and c are 1/2 of the measured diameters in each of the three dimensions.

[3] = Acute toxicity in mice bearing extremely large tumors; assay type: in vivo; details: 200 µg/mouse; tumors about 25% of body weight
Experimental: Acute toxicity studies also were performed.

[4] = test system: MDA-MB-435 human breast carcinoma cells; experiment: In vitro characterization of cytotoxicity, crystal violet staining; assay type: cell-based
Experimental: as §1

[5] = test system: breast tumor; experiment: Viability of tumor cells plated from tumors of treated mice; assay type: in vivo; details: 30 pg equivalent iv, tumors removed five days after treatment, cell numbers 24 hours and 7 days after plating
From the text: In addition, the viability of tumor cells obtained from tumors of mice treated with a tumor homing peptide/doxorubicin conjugate was compared to that of tumors from mice treated with free doxorubicin. In these experiments, breast tumor bearing mice were size matched with regard to the tumors, then treated intravenously with 30 pg equivalent of doxorubicin/[…] (SEQ ID NO: 1) or of free doxorubicin. Five days after treatment, the mice were euthanized and the tumors were removed. The tumor pairs were weighed and ground and the cell suspensions were plated (2 g tumor tissue per 150 mm plate).
Cell numbers were determined at 24 hours and 7 days after plating. Viability of tumor cells from the tumors of mice receiving the doxorubicin/[…] (SEQ ID NO: 1) conjugate was about 3 fold less than cells from tumors of mice treated with the free doxorubicin.

[6] = Acute toxicity in mice bearing extremely large tumors; assay type: in vivo; details: 200 µg/mouse; tumors about 25% of body weight; remark: listed apart in the source
Experimental: Acute toxicity studies also were performed. […] (SEQ ID NO: 1) conjugate. All of the mice treated with the doxorubicin/[…]

[7] = test system: human Kaposi's sarcoma; experiment: In vivo targeting of phage to a tumor; parameters: species or system mice; details: human Kaposi's sarcoma xenograft
Experimental: Since the αvβ3 integrin is expressed by endothelial cells in angiogenic vasculature, experiments were performed to determine whether tumor vasculature that is undergoing angiogenesis can be targeted in vivo using methods as disclosed herein. Phage expressing the peptide, […] (SEQ ID NO: 1; see, Koivunen et al., supra, 1995), which is known to bind to the αvβ3 integrin, were injected into mice bearing tumors formed from human breast carcinoma cells, mouse melanoma cells or human Kaposi's sarcoma cells (see Example IV). The […] […] For example, in mice bearing tumors formed by implantation of human breast carcinoma cells, a twenty-to eighty-fold greater number of the […] (SEQ ID NO: 1) phage, as compared to unselected control phage, accumulated in the tumor.

[8] = test system: Human 435 breast carcinoma; experiment: In vivo targeting of phage to a tumor, phage in organs quantitated; parameters: species or system nude mice
Experimental: When the tumors attained a diameter of about 1 cm, phage expressing a specific RGD-containing peptide were administered to the tumor bearing mouse. Similar results TABLE 1
1 x 10^9 phage expressing the RGD-containing peptide, […] (SEQ ID NO: 1; see, Koivunen et al., supra, 1995) or control (insertless) phage were injected intravenously (iv) into the mice and allowed to circulate for 4 min. The mice then were snap frozen or perfused through the heart while under anesthesia, and various organs, including tumor, brain and kidney, were removed and the phage present in the organs was quantitated (see U.S. Patent No. 5,622,699; Pasqualini and Ruoslahti, supra, 1996).

[9] = 5 µg/mouse/week doxorubicin-equivalent
[10] = 5 µg/mouse/week doxorubicin-equivalent iv
[11] = exposure 30 min, then agents removed, 0.1 to 10 µg/well doxorubicin-equivalent, surviving cells at 24 hours
[12] = 5 µg/mouse/week doxorubicin-equivalent iv, at necropsy, t test p<0.0001

For “doxorubicin/GACVFSIAHECGA: doxorubicin conjugated to the non-tumor homing control peptide, GACVFSIAHECGA (SEQ ID NO: 19) (cysteine pairing not given here; also: doxorubicin conjugated) [reference compound]”, the cell death [1] was “cell death was present only in the cultures treated with the doxorubicin/[…]”, the cell killing [1] was “killed” and the “gross examination: skin ulceration and tumor necrosis” value (shortened to “gross examination”) [2, 9] was “no such signs were observed”. The “treatment results compared with dox control” value [2, 10] was “not significantly different” and the “effect on tumor growth” value [2] was “essentially no effect on tumor growth”.
For COc1cccc2c1C(=O)c1c(O)c3c(c(O)c1C2=O)C[C@@](O)(C(=O)CO)C[C@@H]3O[C@H]1C[C@H](N)[C@H](O)[C@H](C)O1 [doxorubicin], the “time to death after treatment” value [3] was at most 48 h, the “gross examination” value ([2]; 5 µg/mouse/week doxorubicin equivalent) was “no such signs were observed” and the “effect on tumor growth” value [2] was “essentially no effect on tumor growth”. For the same compound, the cell killing ([4]; agents not removed after 30 min, after 24 hr) was “killed” and the cell death [4, 11] was “cell death was present only in the cultures treated with the doxorubicin/CDCRGDCFC”.
In the case of “doxorubicin/CDCRGDCFC: CDCRGDCFC (SEQ ID NO: 1) coupled to doxorubicin using EDC and NHS (cysteine pairing not given here; also: doxorubicin coupled via EDC/NHS)”, the “viability of tumor cells relative to cells from tumors of mice treated with free doxorubicin” value [5] is reported as “about 3 fold less”, the survival after treatment [6] is reported as “survived for longer than one week” and the cell killing [1] is reported as “killed”. For the same compound, the cell death [1, 11] was “cell death was present”, the “gross examination” value [2, 9] was “marked skin ulceration and tumor necrosis” and the “survival compared with dox control and conjugate control” value [2, 10] was “survived beyond the time when the dox control and conjugate control mice had died”. The “tumor size compared with controls” value [2, 10] was “significantly smaller tumors”, the “pulmonary metastasis compared with dox control” value [2, 12] was “a lower incidence of pulmonary metastasis and fewer metastatic lesions” and the “spread to regional lymph nodes compared with dox control” value [2, 12] was “less spread to regional lymph nodes”. For the same compound, the “time alive after the dox control and conjugate control mice had died” value ([2]; dose escalation: 30 µg/mouse every three weeks for three cycles) was “more than 6 months” and the “histopathological analysis of tumor vasculature compared with dox control” value ([2]; mouse, in vivo) was “pronounced destruction of the vasculature”.
In the case of CLSGSLSC, the “selective homing of phage to the tumor” value [7] is reported as “also homed” and the “selective homing of phage to the tumor” value [8] is reported as “also homed”.
